The record followed here is paper PMC11863801 (The Journal of Headache and Pain, 2025).

This test has as its target NaV1.9 (Rattus norvegicus, UniProt O88457). Kind of test: whole-cell patch clamp of NaV1.9-mediated current. Format: cell-based.

pIC50: −log10 of the molar value.

Chain of NaV1.9 (O88457 whole entry): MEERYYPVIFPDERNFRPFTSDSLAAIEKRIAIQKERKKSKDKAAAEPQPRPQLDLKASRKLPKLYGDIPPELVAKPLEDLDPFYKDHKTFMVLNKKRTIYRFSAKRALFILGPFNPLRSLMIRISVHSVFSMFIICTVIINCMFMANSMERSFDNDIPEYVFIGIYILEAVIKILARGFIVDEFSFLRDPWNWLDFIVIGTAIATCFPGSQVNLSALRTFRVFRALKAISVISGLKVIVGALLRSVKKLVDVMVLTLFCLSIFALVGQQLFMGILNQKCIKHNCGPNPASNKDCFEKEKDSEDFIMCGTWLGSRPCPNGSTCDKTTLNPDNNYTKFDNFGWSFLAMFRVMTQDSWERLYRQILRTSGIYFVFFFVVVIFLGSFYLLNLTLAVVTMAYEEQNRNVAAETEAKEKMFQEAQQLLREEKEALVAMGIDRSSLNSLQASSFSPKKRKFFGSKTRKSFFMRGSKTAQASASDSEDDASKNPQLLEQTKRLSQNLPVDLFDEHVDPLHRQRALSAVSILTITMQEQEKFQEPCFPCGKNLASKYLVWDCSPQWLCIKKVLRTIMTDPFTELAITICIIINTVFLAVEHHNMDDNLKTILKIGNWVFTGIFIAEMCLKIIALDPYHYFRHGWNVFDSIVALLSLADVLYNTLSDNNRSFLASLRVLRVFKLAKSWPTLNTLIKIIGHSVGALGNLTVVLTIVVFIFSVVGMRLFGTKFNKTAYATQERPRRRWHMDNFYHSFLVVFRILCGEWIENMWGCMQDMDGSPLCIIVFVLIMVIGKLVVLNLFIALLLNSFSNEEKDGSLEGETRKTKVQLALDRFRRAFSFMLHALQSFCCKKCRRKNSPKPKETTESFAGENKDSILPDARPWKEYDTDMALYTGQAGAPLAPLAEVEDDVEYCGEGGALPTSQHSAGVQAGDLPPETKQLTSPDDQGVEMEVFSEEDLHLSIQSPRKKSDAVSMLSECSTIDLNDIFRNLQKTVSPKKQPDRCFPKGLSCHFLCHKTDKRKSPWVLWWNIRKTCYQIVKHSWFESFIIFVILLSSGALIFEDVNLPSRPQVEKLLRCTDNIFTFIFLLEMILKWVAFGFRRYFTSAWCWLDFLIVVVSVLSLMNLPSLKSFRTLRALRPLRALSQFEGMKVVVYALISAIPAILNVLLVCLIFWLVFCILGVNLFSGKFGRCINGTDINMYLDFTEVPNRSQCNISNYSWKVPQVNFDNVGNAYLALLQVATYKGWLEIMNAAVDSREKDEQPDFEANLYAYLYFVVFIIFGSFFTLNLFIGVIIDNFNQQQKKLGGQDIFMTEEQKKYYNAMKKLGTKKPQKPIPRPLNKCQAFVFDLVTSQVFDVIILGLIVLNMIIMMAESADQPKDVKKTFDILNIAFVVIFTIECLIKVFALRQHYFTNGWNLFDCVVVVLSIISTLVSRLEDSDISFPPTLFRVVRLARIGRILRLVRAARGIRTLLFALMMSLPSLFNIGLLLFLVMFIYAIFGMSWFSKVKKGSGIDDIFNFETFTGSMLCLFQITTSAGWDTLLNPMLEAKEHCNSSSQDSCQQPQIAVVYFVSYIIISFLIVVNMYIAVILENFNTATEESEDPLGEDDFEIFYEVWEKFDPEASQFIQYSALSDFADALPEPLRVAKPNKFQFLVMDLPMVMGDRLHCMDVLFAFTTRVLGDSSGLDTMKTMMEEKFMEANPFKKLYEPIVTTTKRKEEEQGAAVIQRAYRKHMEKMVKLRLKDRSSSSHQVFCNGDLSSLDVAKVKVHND

The pIC50 is −log10 of the IC50, conventionally taken in molar units. The low end stands for a large IC50, the high end for a small IC50. The compound `C[C@]12CC[C@H](O)CC1=CC[C@@H]1[C@@H]2CC[C@]2(C)C(=O)CC[C@@H]12` [DHEA, dehydroepiandrosterone] showed a pIC50 of 4.31.
